Data on eight compounds can be found in PubChem BioAssay (NCI).

Molecules are shown by their SMILES.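 A five-concentration, 48-hour dose response in 96-well plates underlies each endpoint, interpolated linearly between surrounding concentrations. The concentration for 50% growth inhibition is given as GI50. TGI denotes the concentration required for complete inhibition of growth.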

Among the test systems are ACHN renal; CCRF-CEM leukemia; HCT-116 colon; HL-60(TB) leukemia; HOP-92 NSCLC; MCF7 breast; NCI-H460 lung; SK-MEL-5 melanoma; SN12C renal; UACC-257 melanoma.
Common to all, as to test: DTP human tumour cell line panel, 48 h

Take `CC1=C(C(=O)Nc2cc(Cl)c3[nH]ncc3c2)C(c2ccc(C(F)(F)F)cc2)CC(=O)N1` (stereo not given): the GI50 in the assay with ACHN renal is > 25 µM; with CCRF-CEM leukemia, 13.8 µM; in the assay with HCT-116 colon, > 22.4 µM; in the assay with HL-60(TB) leukemia, > 21.2 µM; in the assay on HOP-92 NSCLC it was 0.145 µM; in the assay on MCF7 breast, > 16.1 µM. For the same compound, the GI50 was > 25 µM with NCI-H460 lung, 11.4 µM in the assay with SK-MEL-5 melanoma, > 25 µM in the assay on SN12C renal and > 25 µM with UACC-257 melanoma. Besides, the total growth inhibition concentration (TGI) with ACHN renal, in the assay with CCRF-CEM leukemia, in the assay on HCT-116 colon, in the assay on HL-60(TB) leukemia, in the assay on HOP-92 NSCLC and with MCF7 breast was > 25 µM throughout. Also, the TGI with NCI-H460 lung, in the assay on SK-MEL-5 melanoma, in the assay on SN12C renal and in the assay on UACC-257 melanoma was > 25 µM each time.
Turning to `Cc1cc(N2CCOCC2)nc(N(CCCNc2ccnc3cc(Cl)ccc23)Cc2ccco2)n1`, the GI50 in the assay with ACHN renal was 4.09 µM; in the assay on CCRF-CEM leukemia it was 2.67 µM; with HCT-116 colon, 2.2 µM; with HL-60(TB) leukemia it was 1.87 µM; in the assay with HOP-92 NSCLC, 1.56 µM; with MCF7 breast, 2.42 µM. For the same compound, the GI50 was 3.28 µM with NCI-H460 lung, 1.82 µM in the assay on SK-MEL-5 melanoma, 3.35 µM with SN12C renal and 2.73 µM in the assay with UACC-257 melanoma. Also, the TGI came out at 15.8 µM with ACHN renal; 18.3 µM with CCRF-CEM leukemia; 10.5 µM in the assay on HCT-116 colon; 4.55 µM in the assay with HL-60(TB) leukemia; 7.77 µM with HOP-92 NSCLC; 12.9 µM in the assay with MCF7 breast. Further, the TGI is 13.7 µM in the assay with NCI-H460 lung, 3.65 µM with SK-MEL-5 melanoma, 14.6 µM in the assay with SN12C renal and 7.33 µM in the assay with UACC-257 melanoma.
`Oc1ccc(C2c3ccccc3Oc3ccccc32)c2cccnc12`: the GI50 in the assay on ACHN renal was 0.845 µM; in the assay on CCRF-CEM leukemia it was 0.738 µM; in the assay on HCT-116 colon, 0.852 µM; in the assay with HL-60(TB) leukemia it was 1.94 µM; with HOP-92 NSCLC, 1.86 µM; in the assay on MCF7 breast, 1.74 µM. Also, the GI50 in the assay with NCI-H460 lung was 0.47 µM; in the assay with SK-MEL-5 melanoma it was 1.62 µM; in the assay with SN12C renal it was 1.65 µM; in the assay with UACC-257 melanoma it was 2.76 µM. The TGI with ACHN renal is 9.58 µM; in the assay on CCRF-CEM leukemia it was > 100 µM; in the assay with HCT-116 colon it was > 100 µM; in the assay on HL-60(TB) leukemia, > 100 µM; with HOP-92 NSCLC, 98.7 µM; in the assay with MCF7 breast, > 100 µM. The TGI is 5.1 µM in the assay with NCI-H460 lung, 8.66 µM in the assay on SK-MEL-5 melanoma, > 100 µM with SN12C renal and > 100 µM in the assay on UACC-257 melanoma.
Regarding `CCn1c(-c2nonc2N)nc2c(C#CC(C)(C)O)ncc(OC[C@H]3CCCNC3)c21`, the GI50 is 25.7 µM in the assay with ACHN renal; 0.335 µM in the assay with CCRF-CEM leukemia; 12.9 µM in the assay on HCT-116 colon; 10.6 µM in the assay with HL-60(TB) leukemia; 9.73 µM with HOP-92 NSCLC; 1.05 µM in the assay with MCF7 breast. Moreover, the GI50 in the assay on NCI-H460 lung was 10.6 µM; with SK-MEL-5 melanoma, 14.3 µM; in the assay on SN12C renal, 12.7 µM; with UACC-257 melanoma, 20.8 µM. Also, the TGI with ACHN renal was > 100 µM; with CCRF-CEM leukemia it was 47.2 µM; with HCT-116 colon, > 95.9 µM; in the assay on HL-60(TB) leukemia it was 32 µM; in the assay with HOP-92 NSCLC, 36.8 µM; in the assay with MCF7 breast, 22.9 µM. In addition, the TGI in the assay on NCI-H460 lung amounted to 28.5 µM; with SK-MEL-5 melanoma, 31.2 µM; in the assay on SN12C renal it was 51.1 µM; in the assay on UACC-257 melanoma, 41.2 µM.
Turning to `CN(Cc1cc(Br)cc(Br)c1O)Cc1c(O)ccc2ccccc12`, the TGI with ACHN renal worked out at 41.7 µM; with CCRF-CEM leukemia, 60.6 µM; with HCT-116 colon, 40.6 µM; in the assay with HL-60(TB) leukemia it was 46.1 µM; in the assay with HOP-92 NSCLC, 39.4 µM; in the assay on MCF7 breast, 58.3 µM. In addition, the TGI in the assay with NCI-H460 lung was 54.2 µM; in the assay on SK-MEL-5 melanoma, 33.1 µM; with SN12C renal it was 32 µM; with UACC-257 melanoma it was 37.5 µM.
Consider `CSC(=S)OC1CC(n2cnc3c(NC(=O)c4ccccc4)ncnc32)OC1CO[Si](C)(C)C(C)(C)C` (stereo not given), for which the TGI in the assay with ACHN renal is > 56.2 µM; in the assay with CCRF-CEM leukemia it was > 51.7 µM; with HCT-116 colon, > 100 µM; in the assay on HL-60(TB) leukemia it was 32.6 µM; in the assay on HOP-92 NSCLC, 44.4 µM; in the assay with MCF7 breast, 40.3 µM. For the same compound, the TGI in the assay with NCI-H460 lung is > 56.2 µM; in the assay on SK-MEL-5 melanoma, 18.3 µM; in the assay with SN12C renal it was 52.2 µM; in the assay on UACC-257 melanoma, > 56.2 µM.
On to `CCC(=O)Nc1ccc(C)c(-c2ccc(C(=O)NCC3CC3)cc2)c1`, for which the GI50 in the assay on ACHN renal, in the assay with CCRF-CEM leukemia, in the assay on HCT-116 colon, with HL-60(TB) leukemia, in the assay on HOP-92 NSCLC and with MCF7 breast was > 25 µM in each case. Besides, the GI50 in the assay with NCI-H460 lung, in the assay on SK-MEL-5 melanoma, in the assay on SN12C renal and in the assay with UACC-257 melanoma was > 25 µM in each case. For the same compound, the TGI in the assay on ACHN renal, with CCRF-CEM leukemia, in the assay with HCT-116 colon, in the assay with HL-60(TB) leukemia, in the assay with HOP-92 NSCLC and in the assay on MCF7 breast was > 25 µM each time. The TGI in the assay on NCI-H460 lung, in the assay with SK-MEL-5 melanoma, in the assay on SN12C renal and in the assay with UACC-257 melanoma was > 25 µM throughout.
With `CC1(C)NCCC[C@]2(C)[C@H]3CC[C@@H]4[C@H]5[C@H](C(=O)/C=C/c6ccccn6)CC[C@]5(CO)CC[C@@]4(C)[C@]3(C)CC[C@@H]12`, the GI50 in the assay on ACHN renal is 3.58 µM; in the assay with CCRF-CEM leukemia, 2.71 µM; in the assay on HCT-116 colon, 1.72 µM; in the assay with HL-60(TB) leukemia, 1.84 µM; in the assay on HOP-92 NSCLC it was 1.99 µM; in the assay with MCF7 breast, 1.85 µM. Besides, the GI50 was 1.78 µM in the assay with NCI-H460 lung, 2 µM with SK-MEL-5 melanoma, 3.51 µM in the assay on SN12C renal and 3.99 µM with UACC-257 melanoma. Besides, the TGI in the assay on ACHN renal stood at 13.6 µM; in the assay with CCRF-CEM leukemia, 11.4 µM; with HCT-116 colon, 3.15 µM; in the assay on HL-60(TB) leukemia it was 4.7 µM; with HOP-92 NSCLC it was 7.73 µM; in the assay with MCF7 breast, 5.8 µM. The TGI in the assay with NCI-H460 lung was 3.49 µM; with SK-MEL-5 melanoma, 4.07 µM; in the assay on SN12C renal, 16.8 µM; with UACC-257 melanoma, 19 µM.

By GI50 is commonly meant the concentration giving 50% growth inhibition. In general, TGI refers to the concentration at which net growth stops.
